Test results as given in paper PMC9200763 (Scientific Reports, 2022).
≈ marks a conversion by molar mass, not a printed value. Read-outs that look alike come from different tables or passages of the source. Each block holds one molecule with its values, some of them ahead of it.

How the values were obtained:
[1] = DPPH free radical scavenging activity; type: biochemical; details: for DPPH scavenging EC50: analyzed using XLSTAT software
ABTS assay = type: biochemical; details: for ABTS scavenging EC50: analyzed using XLSTAT software
[2] = Metal chelating activity assay; type: biochemical; details: for Metal chelating EC50: analyzed using XLSTAT software
egg albumin = target: T1, egg albumin (Gallus gallus, UniProt P01012); test: Protein egg albumin denaturation assay; type: biochemical
T1 construct: albumin was extracted from a fresh egg collected from local market of Jorhat, India; from tissue; host or cells: fresh egg (egg white), local market
T1 sequence (P01012 whole entry): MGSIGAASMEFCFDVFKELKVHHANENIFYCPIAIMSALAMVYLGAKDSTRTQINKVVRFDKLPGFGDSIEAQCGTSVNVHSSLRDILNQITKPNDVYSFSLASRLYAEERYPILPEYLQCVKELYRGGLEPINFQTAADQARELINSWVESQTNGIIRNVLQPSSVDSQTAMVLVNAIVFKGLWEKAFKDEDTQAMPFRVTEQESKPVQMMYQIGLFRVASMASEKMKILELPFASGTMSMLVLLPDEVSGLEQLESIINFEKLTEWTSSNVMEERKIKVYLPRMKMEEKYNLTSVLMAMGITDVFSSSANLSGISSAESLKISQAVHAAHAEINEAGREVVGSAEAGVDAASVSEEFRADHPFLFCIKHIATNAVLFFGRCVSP

α-Amylase = test: Antidiabetic activity assay (α-amylase inhibitory); type: biochemical
Acetylcholinesterase = Acetylcholinesterase (Homo sapiens, UniProt P22303); test: Acetylcholinesterase inhibitory assay; type: biochemical
Acetylcholinesterase, sequence (P22303 32-614, species assumed): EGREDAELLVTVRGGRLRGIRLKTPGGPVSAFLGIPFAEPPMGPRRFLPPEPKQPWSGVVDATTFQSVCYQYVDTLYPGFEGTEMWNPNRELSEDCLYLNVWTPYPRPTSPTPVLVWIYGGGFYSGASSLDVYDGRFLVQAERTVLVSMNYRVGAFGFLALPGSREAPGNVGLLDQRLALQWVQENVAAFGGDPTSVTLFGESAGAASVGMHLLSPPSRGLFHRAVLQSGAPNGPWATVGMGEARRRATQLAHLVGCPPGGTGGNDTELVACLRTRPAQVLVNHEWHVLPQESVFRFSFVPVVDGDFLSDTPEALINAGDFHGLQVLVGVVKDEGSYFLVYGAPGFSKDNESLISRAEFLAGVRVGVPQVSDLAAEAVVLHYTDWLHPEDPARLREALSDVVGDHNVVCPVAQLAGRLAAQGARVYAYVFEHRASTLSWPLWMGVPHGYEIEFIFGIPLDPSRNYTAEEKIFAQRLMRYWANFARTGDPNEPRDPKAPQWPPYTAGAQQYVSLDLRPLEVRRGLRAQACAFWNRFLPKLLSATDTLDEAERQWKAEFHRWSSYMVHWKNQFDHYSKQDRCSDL

[3] = test system: Staphylococcus aureus ATCC-11632; test: Broth micro dilution MIC; type: cell-based; details: ATCC11632, S. aureus
[4] = test system: Bacillus subtilis ATCC-11774; test: Broth micro dilution MIC; type: cell-based; details: ATCC11774, B. subtilis
[5] = test system: Streptococcus mutans ATCC-25175; test: Broth micro dilution MIC; type: cell-based; details: ATCC25175, S.mutans
[6] = test system: Aspergillus fumigatus ATCC-204305; test: Broth micro dilution MIC; type: cell-based; details: ATCC204305, A. fumigatus
Allium cepa root tips [7] = test: Allium cepa assay, mitotic index and stages of dividing cells
Source text: (§1) The frequency of chromosomal aberration was checked following protocol of Babatunde and Bakare[31].

Allium cepa root [8] = details: 1 μL/mL
AChE = test system: AChE; parameters: method as in PMID 19351555; details: cited from earlier work
BChE = test system: BChE; parameters: method as in PMID 19351555; details: cited from earlier work
A. parasiticus = details: cited from earlier work
[9] = test system: Staphylococcus aureus ATCC-11632; test: Disc diffusion, zone of inhibition
[10] = test system: Bacillus subtilis ATCC-11774; test: Disc diffusion, zone of inhibition
B. cereus ATCC-10876 = test: Disc diffusion, zone of inhibition; details: Bacillus cereus
[11] = test system: Streptococcus mutans ATCC-25175; test: Disc diffusion, zone of inhibition
[12] = test system: Aspergillus fumigatus ATCC-204305; test: Disc diffusion, zone of inhibition
A. niger ATCC-16885 = test: Disc diffusion, zone of inhibition
[13] = test system: Saccharomyces cerevisiae ATCC-9763; test: Disc diffusion, zone of inhibition
[14] = test system: Candida albicans ATCC-66027; test: Disc diffusion, zone of inhibition
[15] = test system: Salmonella typhimurium ATCC-13311; test: Disc diffusion, zone of inhibition; type: cell-based; details: Salmonella enterica, S. typhimurium, read-out: Zone of inhibition, standard drug
Protocol: Ciprofloxacin and fluconazole were used as standard antimicrobial drugs at a concentration (10 μg/disc) for bacterial and fungal strains, respectively.
MHA was used for culturing the bacteria from bacterial broth and kept at 37 °C for 24 h. The fungal broth was used to prepare fungal culture in PDB and it was kept at 28 °C for 48 h.

[16] = parameters: method as in PMID 23181593; details: cited from earlier work
[17] = parameters: method as in PMID 23181593; details: at 100 μg/mL; cited from earlier work
Allium cepa root tips [18] = test: Allium cepa assay, chromosomal aberration test; details: 01.00 µL/mL; 72 h
Source text: as §1

Allium cepa root [19] = test: Allium cepa assay, root growth; details: 1 μL/mL
[20] = analyzed using Graph Pad Prism software
[21] = analyzed using MS-EXCEL software
[22] = Aspergillus fumigatus, ATCC204305

Structure (SMILES): C/C=C/c1ccc(OC)cc1 [Anethole standard, anethole]
DPPH scavenging IC50 [1, 20]: 0.58 ± 0.048 µg/mL | DPPH scavenging IC50 [1, 21]: 10.94 ± 0.026 µg/mL | DPPH scavenging EC50 [1]: 8.69 ± 0.058 µg/mL | ABTS scavenging IC50 (ABTS assay; [20]): 34.9 ± 0.004 µg/mL | ABTS scavenging IC50 (ABTS assay; [21]): 9.26 ± 0.002 µg/mL | ABTS scavenging EC50 (ABTS assay): 9.48 ± 0.048 µg/mL | Metal chelating IC50 [2, 20]: 12.15 ± 0.032 µg/mL | Metal chelating IC50 [2, 21]: 31.02 ± 0.018 µg/mL | Metal chelating EC50 [2]: 29.54 ± 0.032 µg/mL | EC50 (egg albumin): 132 µM | IC50 (egg albumin; Protein denaturation IC50, analyzed using Graph Pad Prism software): 1380 µM | IC50 (egg albumin; Protein denaturation IC50, analyzed using MS-EXCEL software): 130 µM | α-Amylase inhibitory IC50 (α-Amylase; [20]): 13.08 ± 0.016 µg/mL | α-Amylase inhibitory IC50 (α-Amylase; [21]): 22.16 ± 0.12 µg/mL | α-Amylase inhibitory EC50 (α-Amylase; analyzed using XLSTAT software): 21.75 ± 0.008 µg/mL | EC50 (Acetylcholinesterase): 208 µM | IC50 (Acetylcholinesterase; Acetylcholinesterase inhibitory IC50, analyzed using Graph Pad Prism software): 145 µM | IC50 (Acetylcholinesterase; Acetylcholinesterase inhibitory IC50, analyzed using MS-EXCEL software): 228 µM | MIC [3]: 95 µg/mL (≈ 641 µM) | MIC [4]: 90 µg/mL (≈ 607 µM) | MIC [5]: 15 µg/mL (≈ 101 µM) | MIC [6]: 65 µg/mL (≈ 439 µM) | Genotoxic effect (in words) (Allium cepa root tips [7]): no genotoxic effect | Anaphase, dividing cells (Allium cepa root tips [7]; Allium cepa, 1 μL/mL): 13.51% | Metaphase, dividing cells (Allium cepa root tips [7]; Allium cepa, 1 μL/mL): 18.92% | Prophase, dividing cells (Allium cepa root tips [7]; Allium cepa, 1 μL/mL): 59.46% | Telophase, dividing cells (Allium cepa root tips [7]; Allium cepa, 1 μL/mL): 8.10% | Root length before treatment ± SD (Allium cepa root [8]; 0 h): 7.71 ± 0.016 cm | Root length after treatment ± SD (Allium cepa root [8]; 72 h): 8.36 ± 0.009 cm | AChE inhibitory IC50 (AChE): 134.70 µg/mL | BChE inhibitory IC50 (BChE): 209.60 µg/mL | Concentration that inhibits completely the growth of A. parasiticus (A. parasiticus): 400 µg/mL | zone of inhibition at 100 µg/mL ([9]; ATCC11632): 8 mm | zone of inhibition at 250 µg/mL ([9]; ATCC11632): 10 mm | zone of inhibition at 500 µg/mL ([9]; ATCC11632): 14 mm | zone of inhibition at 100 µg/mL ([10]; ATCC11774): 8 mm | zone of inhibition at 250 µg/mL ([10]; ATCC11774): 11 mm | zone of inhibition at 500 µg/mL ([10]; ATCC11774): 13 mm | zone of inhibition at 250 µg/mL (B. cereus ATCC-10876; ATCC10876): 13 mm | zone of inhibition at 500 µg/mL (B. cereus ATCC-10876; ATCC10876): 16 mm | zone of inhibition at 50 µg/mL ([11]; ATCC25175): 12 mm | zone of inhibition at 100 µg/mL ([11]; ATCC25175): 16 mm | zone of inhibition at 250 µg/mL ([11]; ATCC25175): 18 mm | zone of inhibition at 500 µg/mL ([11]; ATCC25175): 23 mm | zone of inhibition at 250 µg/mL [12, 22]: 14 mm | zone of inhibition at 500 µg/mL [12, 22]: 18 mm | zone of inhibition at 250 µg/mL (A. niger ATCC-16885; Aspergillus niger, ATCC16885): 16 mm | zone of inhibition at 500 µg/mL (A. niger ATCC-16885; Aspergillus niger, ATCC16885): 21 mm | zone of inhibition at 500 µg/mL ([13]; Saccharomyces cerevisiae, ATCC9763): 16 mm | zone of inhibition at 500 µg/mL ([14]; Candida albicans, ATCC66027): 19 mm

Metal chelating IC50 [2, 20]: 12.11 ± 0.002 µg/mL | Metal chelating IC50 [2, 21]: 29.92 ± 0.002 µg/mL | Metal chelating EC50 [2]: 29.33 ± 0.064 µg/mL
Structure (SMILES): O=C(O)CN(CCN(CC(=O)O)CC(=O)O)CC(=O)O [EDTA, ethylenediamminetetracetic acid]

Structure (SMILES): OC(Cn1cncn1)(Cn1cncn1)c1ccc(F)cc1F [fluconazole]
Zone of inhibition, standard drug ([12]; A. fumigatus, 10 µg/disc): 16 ± 0.011 mm | zone of inhibition at 10 µg/disc ([12]; Aspergillus fumigatus, ATCC204305, read-out: Zone of inhibition, standard drug): 16 mm | Zone of inhibition, standard drug (A. niger ATCC-16885; A. niger, 10 µg/disc): 12 ± 0.013 mm | zone of inhibition at 10 µg/disc (A. niger ATCC-16885; Aspergillus niger, ATCC16885, read-out: Zone of inhibition, standard drug): 12 mm | Zone of inhibition, standard drug ([13]; S. cerevisiae, 10 µg/disc): 14 ± 0.016 mm | zone of inhibition at 10 µg/disc ([13]; Saccharomyces cerevisiae, ATCC9763, read-out: Zone of inhibition, standard drug): 14 mm | Zone of inhibition, standard drug ([14]; C. albicans, 10 µg/disc): 20 ± 0.014 mm | zone of inhibition at 10 µg/disc ([14]; Candida albicans, ATCC66027, read-out: Zone of inhibition, standard drug): 20 mm

Structure (SMILES): O=C(O)c1cn(C2CC2)c2cc(N3CCNCC3)c(F)cc2c1=O [ciprofloxacin, Ciprofloxacin]
zone of inhibition at 10 µg/disc [15]: 21 ± 0.015 mm | zone of inhibition at 10 µg/disc ([9]; ATCC11632, read-out: Zone of inhibition, standard drug): 19 ± 0.017 mm | zone of inhibition at 10 µg/disc ([10]; ATCC11774, read-out: Zone of inhibition, standard drug): 16 ± 0.015 mm | zone of inhibition at 10 µg/disc (B. cereus ATCC-10876; ATCC10876, read-out: Zone of inhibition, standard drug): 15 ± 0.013 mm | zone of inhibition at 10 µg/disc ([11]; ATCC25175, read-out: Zone of inhibition, standard drug): 7 ± 0.015 mm

DPPH scavenging IC50 [1, 20]: 0.60 ± 0.121 µg/mL | DPPH scavenging IC50 [1, 21]: 17.27 ± 0.004 µg/mL | DPPH scavenging EC50 [1]: 17.55 ± 0.056 µg/mL | ABTS scavenging IC50 (ABTS assay; [20]): 39.31 ± 0.84 µg/mL | ABTS scavenging IC50 (ABTS assay; [21]): 17.61 ± 0.012 µg/mL | ABTS scavenging EC50 (ABTS assay): 19.54 ± 0.121 µg/mL
Structure (SMILES): O=C1O[C@H]([C@@H](O)CO)C(O)=C1O [Ascorbic acid]
DPPH scavenging activity ([16]; at 1000 μg/mL): 99.65% | DPPH IC50 [16]: 5.15 µg/mL | Reducing power [17]: 0.85

Structure (SMILES): CCOS(C)(=O)=O [EMS, ethyl methanesulphonate]
Metaphase, dividing cells (Allium cepa root tips [7]; Allium cepa root tips, 1 μL/mL): 13.27% | Mitotic index (Allium cepa root tips [7]; Allium cepa root tips, 1 μL/mL): 1.96% | Prophase, dividing cells (Allium cepa root tips [7]; Allium cepa root tips, 1 μL/mL): 86.73% | Chromosomal aberration: Breakage (Allium cepa root tips [18]): 15 | Chromosomal aberration: Bridges (Allium cepa root tips [18]): 30 | Chromosomal aberration: Clumped (Allium cepa root tips [18]): 14 | Chromosomal aberration: Multipolarity (Allium cepa root tips [18]): 21 | Chromosomal aberration: Stickiness (Allium cepa root tips [18]): 28 | Total abberations (Allium cepa root tips [18]): 21.60% | Root length after treatment ± SD (Allium cepa root [19]; after treatment): 7.31 ± 0.013 cm | Root length before treatment ± SD (Allium cepa root [19]; before treatment): 7.24 ± 0.014 cm
